ChEMBL document CHEMBL1141556, “Structural insights into hydroxycoumarin-induced apoptosis in U-937 cells” (Bioorg Med Chem, 2008)
“And” between values parts separate entries of the source, which are not always exact repeats. Equal values may be shown once. The source made the active and inactive calls. The rule behind the calls is not given here.

Tests used:
U-937 [1] = test: Cytotoxicity against human U937 cells by trypan blue assay after 48 hrs; assay type: functional; conditions: U-937, 48 h
U-937 [2] = test: Induction of apoptosis in human U937 cells at 250 uM after 24 hrs; assay type: functional
U-937 [3] = test: Effect on DNA fragmentation in human U937 cells assessed as ladder-like pattern at 2 mM after 24 hrs; assay type: functional, cell-based
U-937 [4] = test: Growth inhibition of human U937 cells by [3H]thymidine incorporation assay; assay type: functional, cell-based
U-937 [5] = test: Reversal of proapoptotic effect in human U937 cells assessed as inhibition of ladder-like pattern at 250 uM in presence of 10 mM NAC added every 8 hrs for 24 hrs; assay type: functional, cell-based
U-937 [6] = test: Reversal of induction of apoptosis in human U937 cells at 250 uM in presence of 10 mM NAC added every 8 hrs for 24 hrs; assay type: functional, cell-based
U-937 [7] = test: Induction of DNA fragmentation in human U937 cells at 2 mM after 24 hrs; assay type: functional, cell-based

| SMILES | CC50 (U-937 [1]) [µM] | Activity (U-937 [2]) | Activity (U-937 [3]) | IC50 (U-937 [4]; Homo sapiens, U-937) [µM] | Activity (U-937 [5]) | Activity (U-937 [6]) | Activity (U-937 [7]) | IC50 (U-937 [4]; u-937) [µM] |
| --- | --- | --- | --- | --- | --- | --- | --- | --- |
| Cc1cc(=O)oc2ccc(O)cc12 | > 2000 | 3% | Active | 628 | – | – | – | – |
| Cc1ccc2c(C)cc(=O)oc2c1 | > 2000 | 5.3% | – | > 2000 | – | – | – | – |
| Cc1cc(=O)oc2c(C)cccc12 | > 2000 | 4.6% | – | > 2000 | – | – | – | – |
| Cc1ccc2oc(=O)cc(C)c2c1 | > 2000 | 4.3% | – | > 2000 | – | – | – | – |
| O=c1oc2ccccc2cc1O [3-HYDROXYCOUMARIN] | > 2000 | 5.3% | – | > 2000 | – | – | – | – |
| Cc1cc(=O)oc2c(O)c(O)ccc12 [4-METHYLDAPHNETIN] | 165 | 55% | – | 48.6 | Active | Active | – | – |
| O=c1ccc2ccccc2o1 [COUMARIN] | > 2000 | 2.6% | – | > 2000 | – | – | – | – |
| O=c1ccc2cc(O)c(O)cc2o1 [ESCULETIN] | 194 | 54.3% | – | 31.3 | – | – | Active | – |
| COc1ccc2c(C)cc(=O)oc2c1 [HYMECROMONE METHYL ETHER] | > 2000 | 4% | – | > 2000 | – | – | – | – |
| Cc1cc(=O)oc2cc(O)ccc12 [HYMECROMONE] | > 2000 | 5.2% and 4.7% | Active | – | – | – | – | > 2000 |
| COc1cc2ccc(=O)oc2cc1O [SCOPOLETIN] | 600 | 6.3% | Active | 152 | – | – | – | – |
